Literature values as cited in patent publication US8092822B2, “Coatings including dexamethasone derivatives and analogs and olimus drugs” (Abbott Cardiovascular Systems Inc., priority 2008, dated 2012).

How the values were obtained:
[1] = tested on: endothelial cell proliferation
[2] = tested on: human coronary artery endothelial cells; conditions: in vitro

| Structure (SMILES) | effect on endothelial migration (endothelial migration) | inhibition of endothelial cell proliferation [1] | inhibition of migration of human coronary artery endothelial cells [2] |
| --- | --- | --- | --- |
| C[C@@H]1C[C@H]2[C@@H]3CCC4=CC(=O)C=C[C@]4(C)[C@@]3(F)[C@@H](O)C[C@]2(C)[C@@]1(O)C(=O)CO [dexamethasone, Dexamethasone] | positive effect | – | – |
| CC(=O)O[C@H]1C(=O)[C@@]2(C)[C@H]([C@H](OC(=O)c3ccccc3)[C@]3(O)C[C@H](OC(=O)[C@H](O)[C@@H](NC(=O)c4ccccc4)c4ccccc4)C(C)=C1C3(C)C)[C@]1(OC(C)=O)CO[C@@H]1C[C@@H]2O [paclitaxel, Paclitaxel] | – | inhibit | inhibits |
| CO[C@H]1C[C@@H]2CC[C@@H](C)[C@@](O)(O2)C(=O)C(=O)N2CCCC[C@H]2C(=O)O[C@H]([C@H](C)C[C@@H]2CC[C@H](n3cnnn3)[C@H](OC)C2)CC(=O)[C@H](C)/C=C(\C)[C@@H](O)[C@@H](OC)C(=O)[C@H](C)C[C@H](C)/C=C/C=C/C=C/1C [zotarolimus] | – | inhibit | – |
